Molecules are shown by their SMILES. A value given as a limit tells only on which side of the number the result lay.

For orientation: Ki means the equilibrium dissociation constant of an inhibitor or competing ligand from its target.

For one test, the target named is Dipeptidyl peptidase 4 (Homo sapiens, UniProt P27487). Description: DPP Inhibition Assay. The conditions noted are these: pH 7.5; 22 °C.
The target in the next test is Dipeptidyl peptidase 8 (Homo sapiens, UniProt Q6V1X1). In words: DPP Inhibition Assay. The conditions noted are these: pH 7.5; 22 °C.
Sequence of Dipeptidyl peptidase 8 (Q6V1X1 whole entry): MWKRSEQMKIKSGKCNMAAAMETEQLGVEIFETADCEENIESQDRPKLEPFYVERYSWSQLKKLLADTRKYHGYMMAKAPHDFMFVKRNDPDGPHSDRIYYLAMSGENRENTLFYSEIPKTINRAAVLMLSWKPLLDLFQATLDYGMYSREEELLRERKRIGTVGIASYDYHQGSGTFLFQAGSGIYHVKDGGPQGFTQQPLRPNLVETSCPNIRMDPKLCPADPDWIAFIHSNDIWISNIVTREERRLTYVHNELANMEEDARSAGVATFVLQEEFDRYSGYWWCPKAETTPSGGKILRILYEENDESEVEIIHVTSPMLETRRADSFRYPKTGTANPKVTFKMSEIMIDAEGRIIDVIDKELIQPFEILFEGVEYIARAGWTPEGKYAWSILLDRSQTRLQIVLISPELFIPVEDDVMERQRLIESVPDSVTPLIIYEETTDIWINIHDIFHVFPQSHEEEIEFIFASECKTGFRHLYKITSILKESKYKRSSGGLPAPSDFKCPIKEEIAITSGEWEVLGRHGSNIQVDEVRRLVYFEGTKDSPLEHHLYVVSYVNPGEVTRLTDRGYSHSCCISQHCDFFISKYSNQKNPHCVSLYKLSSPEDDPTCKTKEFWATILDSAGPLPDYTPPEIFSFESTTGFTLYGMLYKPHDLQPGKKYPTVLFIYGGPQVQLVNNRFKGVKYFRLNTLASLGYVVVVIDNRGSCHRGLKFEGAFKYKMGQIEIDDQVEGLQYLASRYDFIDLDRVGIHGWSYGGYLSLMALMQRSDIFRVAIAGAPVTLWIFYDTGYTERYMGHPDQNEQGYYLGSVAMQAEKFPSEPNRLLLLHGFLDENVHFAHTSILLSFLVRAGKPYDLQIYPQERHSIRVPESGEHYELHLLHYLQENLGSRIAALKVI

Sequence of Dipeptidyl peptidase 4 (P27487 whole entry): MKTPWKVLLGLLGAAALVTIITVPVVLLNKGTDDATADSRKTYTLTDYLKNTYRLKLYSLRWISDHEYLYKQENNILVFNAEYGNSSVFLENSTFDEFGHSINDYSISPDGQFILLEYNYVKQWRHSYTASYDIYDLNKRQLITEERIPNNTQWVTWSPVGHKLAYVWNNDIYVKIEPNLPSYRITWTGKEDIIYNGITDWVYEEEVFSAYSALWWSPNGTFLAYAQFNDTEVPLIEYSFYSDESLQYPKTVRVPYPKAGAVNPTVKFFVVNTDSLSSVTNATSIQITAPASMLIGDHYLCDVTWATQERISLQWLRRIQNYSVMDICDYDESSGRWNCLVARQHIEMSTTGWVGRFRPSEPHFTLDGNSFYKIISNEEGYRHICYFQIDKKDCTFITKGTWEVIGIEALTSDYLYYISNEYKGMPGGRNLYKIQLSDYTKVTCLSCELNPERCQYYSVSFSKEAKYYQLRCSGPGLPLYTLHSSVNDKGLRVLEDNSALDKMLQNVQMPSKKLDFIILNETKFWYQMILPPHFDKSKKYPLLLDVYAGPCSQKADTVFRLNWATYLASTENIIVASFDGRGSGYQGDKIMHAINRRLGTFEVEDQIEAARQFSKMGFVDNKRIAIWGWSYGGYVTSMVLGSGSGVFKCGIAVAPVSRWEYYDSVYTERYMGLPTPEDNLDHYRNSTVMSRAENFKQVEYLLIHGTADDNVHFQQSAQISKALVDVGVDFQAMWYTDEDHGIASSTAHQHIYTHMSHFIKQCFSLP

As to `Cn1c(=O)c2c(nc(N3CCC[C@@H](N)C3)n2Cc2ccccc2C#N)n(C)c1=O` [Xanthine mimetic compound 6], the Ki on Dipeptidyl peptidase 4 was 2 nM; on Dipeptidyl peptidase 8, above 30 µM. Compound `CC#C[C@H]1CC[C@@H](C#N)N1C(=O)[C@@H](N)C1CCCC1` [(2S,5R)-1-((2S)-2-amino-2-cyclopentylethanoyl)-5-prop-1-ynylpyrrolidine-2-carbonitrile] gave a Ki on Dipeptidyl peptidase 8 above 30 µM.

Source of the values: BindingDB's records for doi:10.1021/bi060184f (Abbott Laboratories, 2006).
